Reference: patent US8513306B2, “Enhancement of urogenital function” (priority 2005, dated 2013)

Tests used:
[1] = in vivo; cited from earlier work
[2] = system: younger subject two; experiment: Trial: small amounts of amantadine with creatine, with or without a PDE5 inhibitor ED drug; assay type: in vivo, human; conditions: for Results in conjugal sexual activity: ED drugs in low doses over the past four years; for Effectiveness of small dose of the PDE5 inhibitor ED drug alone: VIAGRA about 12.5 mg or LEVITRA about 2.5 mg, normally
Experimental: In a trial, the younger subject two ingested small amounts of amantadine along with about 88 mg of creatine. The small amounts of amantadine were measured by opening a capsule of amantadine and pouring out small amounts. Ten individual administrations used less than one 100 mg capsule of amantadine. Thus, the dose of amantadine was approximately 5 mg to approximately 10 mg.
The subject noted a body weight that varied little from about 78 kg over the past twenty plus years. The subject noted no use of blood pressure or other prescribed medications on a regular basis.

[3] = system: younger subject one; experiment: Observation of the younger subject on lycopene-containing foods; assay type: in vivo, human; conditions: on occasion, for one day at a time
Source text: Other exemplary compositions may include lycopene. […] Lycopene is present in tomato products while other foods of interest include certain beans and blue berries. An exemplary method includes administering such a composition. For example, a composition that includes creatine and lycopene may be administered to a subject to treat a urologic disorder. An exemplary method includes administering creatine and lyocpene to treat a urologic disorder.

[4] = system: patients; conditions: in vivo; cited from earlier work
[5] = system: younger subject two; experiment: Trial: occasional amantadine for flu prophylaxis, nocturnal urinary symptoms; assay type: in vivo, human; conditions: occasional administration of about 100 mg
Experimental: A trial involving the younger subject two involved occasional administration of about 100 mg of amantadine for flu prophylaxis.

[6] = system: subject one with nocturia and diagnosed moderate prostate enlargement; experiment: Trial: single dose of creatine monohydrate powder in solution prior to sleep; assay type: in vivo, human; conditions: person two
Experimental: A trial provided creatine monohydrate as a powder (about 100% creatine monohydrate) and administered a single dose (approximately 0.1 to 0.2 g) of the creatine monohydrate powder in a solution (about 0.09 to 0.17 g creatine) approximately 0.5 to 3 hours prior to sleep. Urinary flow-related symptoms were reduced for the immediate sleep period and for sleep periods during the following 48 hours.
The subject weighed approximately 80 kg (about 175 lbs). Thus, the dosage was about 0.9 mg of creatine per kg of body weight. Range may vary by individual and prior consumption of a creatine compound. A general range for CSUE may be from about 0.4 mg creatine monohydrate to about 4.0 mg creatine monohydrate per kg body weight per day (e.g., about 32 mg to about 320 mg per day for a subject weighing about 80 kg). As already mentioned, the various trials used creatine monohydrate powder (about 100%) in solution. Thus, in terms of creatine content, the general range for CSUE may be from about 0.35 mg creatine per kg body weight per day (e.g., about 0.4*(3.124.4/5) mg) to about 3.5 mg creatine per kg body weight per day (e.g., 4.0*(3.124.4/5) mg). While dose may vary from patient to patient, the dose is typically less than the dose for CSR.

[7] = system: varsity football and track athletes; conditions: 3 g per day without prior loading; cited from earlier work
[8] = system: two male subjects with urinary symptoms; experiment: Additional trials: creatine monohydrate in solution, loading phase and maintenance phase; assay type: in vivo, human
Experimental: […] […] […] The post-loading phase is referred to herein as a maintenance phase. The dose may vary during the maintenance phase; however, it is generally at least 50% less than the dose used in a loading phase.
In these trials, urinary flow-related symptoms were reduced.
However, in various trials, a delay in relief was experienced that corresponded to the dose size where a larger than required dose would actually delay relief (e.g. beyond 24 hours to as much as 72 hours). […] Such trials indicate that a dosage range exists for relief of symptoms and for timing of the relief.

[9] = single dose approx 0.1 to 0.2 g in solution prior to sleep

C[C@]12CC[C@H](OS(=O)(=O)O)CC1=CC[C@@H]1[C@@H]2CC[C@]2(C)C(=O)CC[C@@H]12 [DHEA-S, DHEA-sulfate]
Levels of testosterone and androstenedione [1]: increased levels

CCCc1nc(C)c2c(=O)nc(-c3cc(S(=O)(=O)N4CCN(CC)CC4)ccc3OCC)[nH]n12 [LEVITRA®, 4-[2-ethoxy-5-(4-ethylpiperazin-1-yl)sulfonyl-phenyl]-9-methyl-7-propyl-3,5,6,8-tetrazabicyclo[4.3.0]nona-3,7,9-trien-2-one]
Results in conjugal sexual activity [2]: good results
Effectiveness of small dose of the PDE5 inhibitor ED drug alone [2]: somewhat marginally effective

CC(C)=CCC/C(C)=C/C=C/C(C)=C/C=C/C(C)=C/C=C/C=C(C)/C=C/C=C(C)/C=C/C=C(\C)CCC=C(C)C [Lycopene, lycopene]
Nocturnal urine stream slowing [3]: a lack of nocturnal urine stream slowing

CC12CC3CC(C)(C1)CC(N)(C3)C2 [Memantine, 1-amino-3,5-dimethyl-adamantane]
Tolerability [4]: generally well-tolerated

CCCc1nn(C)c2c(=O)[nH]c(-c3cc(S(=O)(=O)N4CCN(C)CC4)ccc3OCC)nc12.O=C(O)CC(O)(CC(=O)O)C(=O)O [VIAGRA®, 1-[4-ethoxy-3-(6,7-dihydro-1-methyl-7-oxo-3-propyl-1H-pyrazolo[4,3-d]pyrimidin-5-yl)phenylsulfonyl]-4-methylpiperazine citrate]
Results in conjugal sexual activity [2]: good results
Effectiveness of small dose of the PDE5 inhibitor ED drug alone [2]: somewhat marginally effective

NC12CC3CC(CC(C3)C1)C2 [amantadine, adamantan-1-amine]
Effect compared with DHEA taken to enhance libido (readiness for and enjoyment of orgasm) ([2]; about 5 mg of amantadine): similarly beneficial but distinct effect
Effect relative to that of the PDE5 inhibitor ED drugs ([2]; subject's observation): additive
Nocturnal urinary symptoms [5]: reduction in nocturnal urinary symptoms

CN(CC(=O)O)C(=N)N.O [creatine monohydrate]
Urinary flow-related symptoms ([6]; single dose approx 0.1 to 0.2 g in solution 0.5 to 3 hours prior to sleep, immediate sleep period and sleep periods of following 48 hours): reduced
Nocturnal erections [6, 9]: increase in nocturnal erections
Testicular blood flow as evidenced by palpable scrotal content enlargement [6, 9]: increase in testicular blood flow
Ergogenic effect [7]: did not observe ergogenic effect
Symptoms (urinary) ([8]; both subjects, loading phase 0.1 to 1.0 g, then maintenance about 50 to 150 mg every other day): symptoms were relieved
Initiation of urine stream at night ([8]; doses larger than about 0.25 g in the maintenance phase, younger subject): more difficult until 24 hours to 48 hours later
Urinary symptom reduction ([8]; doses of greater than 1 g after the loading phase, both subjects): less urinary symptom reduction
